These results are taken from US20060025449A1, “Use of N-substituted imino sugars for appetite suppression” (priority 2004, published 2006).

Assay [1] concerns lean control mouse. Nature of the assay: Single intracerebroventricular (ICV) injection, food intake and weight change after 24 hours. The assay is classed as in vivo. The note with it: 2 nmol ICV, 24 hours. On the procedure:
To investigate a central anorexigenic mechanism for weight loss in mice treated with NB-DNJ, single intracerebro-ventricular (ICV) injections were performed. The mice were assessed for food intake and weight change. Mice were anesthetized with isofluorane (4%) delivered by a vaporiser. Upon achievement of a surgical plane of anaesthesia, the animal was transferred to and secured in a Kopf small animal ultra precise stereotaxic instrument (David Kopf Instruments, Tujunga, Calif., USA) fitted with rat ear bars, mouse adaptor and mouse anaesthesia mask. A small amount of lignocaine local anaesthetic gel was applied to the ear bars to reduce any post-operative discomfort. For the remainder of the procedure, anaesthesia was maintained with 2.5% isofluorane. Lacrilube (Allergan Ltd, High Wycombe, UK) was applied to the mouse's eyes and a subcutaneous injection of the non-steroidal anti-inflammatory drug, Rimadyl (Pfizer, Sandwich, Kent, UK) was given for post-operative analgesia. For ICV injections, a small scalpel incision was made along the midline of the scalp from above the eyes to the occiput. A small hole was drilled in the skull, 1 mm lateral and 0.34 mm posterior to Bregma. 1 μl solution was slowly infused into the lateral ventricle at a depth of 2.25 mm, via a glass needle pipette pulled to a thickness of less than 100 microns at the tip. Mice were injected with 2 nmol compound (NB-DNJ, NB-DGJ or 2-deoxy glucose) in isotonic saline vehicle which was injected into controls. The incision was then closed using VetBond acrylic suture fluid (3M Animal Care Products, St Paul, Minn., USA). The whole procedure from induction of anaesthesia to full recovery lasted less than seven minutes. Mice were allowed free access to a pre-weighed quantity of RM1 pellet diet with water provided ad libitum. 24 hours following ICV injection the mice and remaining diet were weighed. To confirm a central anorectic effect of NB-DNJ, 2 nmol NB-DNJ, NB-DGJ and 2 deoxyglucose were injected directly into the lateral cerebral ventricle of lean control mouse brain (approximately 100 μM final cerebro-ventricular concentration). Mice injected with both saline vehicle and NB-DGJ ate a normal quantity of pellet diet in the following 24 hours (FIG. 9), approximately 5% less in this experiment than that seen in control mice in FIG. 7 (not statistically significant). In contrast, NB-DNJ-injected mice ate 20% less (p<0.02 for both saline and NB-DGJ) and 2-deoxy-glucose injections caused a 10% increase in feeding. 2-deoxy-glucose is a mild appetite stimulant in the short-term. Tsutsui et al., Physiol Behav 31, 493-502. In contrast, NB-DGJ had no effect, as expected.

The test system of assay [2] is C57B1/6 mice. Nature of the assay: Effect of imino sugars admixed with diet on growth of normal control mice. The class given is in vivo, mouse. The note with it: 2400 mg/kg/day in diet. On the procedure:
Control C57B1/6 and C57BL/6O1aHsd-Lep ob mice were obtained from Harlan, UK at five weeks of age. The mice were housed under standard non-sterile conditions and fed a diet of mouse chow pelleted or expanded ground RM1 diet (SDS Ltd, Witham, Essex) with water available ad libitum. For dietary treatment of the mice with NB-DNJ or NB-DGJ, the diet and compound were admixed thoroughly as dry solids, stored at room temperature and used within 7 days. Unless indicated otherwise, mice were treated with a dose of 2400 mg/kg body weight per day, assuming an intake of around 5 g diet/day. Mice were maintained on diet with or without compound for up to six months of age and were weighed at regular intervals during the course of the experiment (see figure legends for group sizes and further experimental details). To study the effect of compound on obese mice, three groups (n=5) of ob/ob mice were monitored from five weeks of age. One group acted as control and were fed ground RM1 diet. At 6 weeks of age, the second group was started on NB-DNJ in the diet, whilst the third group started drug treatment at 12 weeks of age. All mice were then monitored for up to six months of age. […] In the first week of treatment, mice with NB-DNJ in their diet lost about 10% of their total body mass. Over the course of the following weeks, their weight stabilises. By 5 weeks of treatment they weighed 25% less than the controls. They then started to gain weight. However, after 10 weeks they remained 20% less in mass when compared with the age and sex-matched control group.

The test system of assay [3] is control lean mice. Nature of the assay: ICV mini-pump implants, long-term intracerebro-ventricular delivery. The class given is in vivo, mouse. The note with it: ICV mini-pump 500 mM, first 24 hours. On the procedure: FIG. 11. Control lean mice (n=5 in each group) had icv minipumps (50 mM imino sugar) implanted. Body weight was the monitored at regular intervals over three weeks. See example 7 for further experimental details. The effect of long-term intracerebro-ventricular delivery of imino sugars was determined by the implantation of Alzet mini-osmotic pumps (model 2004, DURECT Corporation, CA, USA) together with the brain infusion kit II which features a high stability low profile cannula. The mini-pumps were loaded with 0.24 ml imino sugar or saline vehicle. The indwelling 28 gauge stainless steel cannula was cut to a length of 2.25 mm. Mice were anaesthetised as for the ICV injections and underwent similar surgical procedures throughout. After drilling a small hole in the cranium at the midline, 2 mm posterior to Bregma, the mini-pump was positioned subcutaneously in the animal's flank and the cannula was implanted. This position and depth ensured delivery to the third cerebral ventricle. The implant was secured to the cranium using VetBond acrylic suture fluid, which was also used to close the surgical wound. The whole procedure lasted less than 9 minutes and mice were fully conscious and recovered within three minutes. For concentration of imino sugar in mini-pumps see figure legends.

Entries after “also recorded” stand apart in the source; their conditions may differ.

In assay [1], `O=CC[C@@H](O)[C@H](O)[C@H](O)CO` [2-deoxy-glucose, 2-deoxyglucose] displayed an increase in feeding of 10%.
As to `CCCCN1C[C@H](O)[C@@H](O)[C@@H](O)[C@H]1CO` [NB-DGJ], the “effect on growth / body weight” value in assay [2] was “did not lose weight; also recorded: no discernible effect”. In addition, the “effect on food intake” value in assay [1] was “no effect”. Also, in assay [1] (not statistically significant), the “ate less than control mice of FIG. 7” value is listed as “approximately 5%”. Further, in assay [3], the “effect on dietary intake” value is “no statistically significant effect” and the “effect on weight change” value is recorded as “no statistically significant effect”.
